Measured values published in patent publication US9763445B2, “Safened herbicidal compositions comprising a pyridine carboxylic acid herbicide” (Dow AgroSciences, LLC, priority 2014, dated 2017).

Columns and labels:
[1] = tested on: spring wheat (TRZAS); assay: Postemergence greenhouse trial, % visual injury on spring wheat; assay type: in vivo, Triticum aestivum; details: TRZAS, CQC-m 0 g/ha
Description: (§1) Seeds of the desired test plant species were planted in Sun Gro MetroMix® 306 planting mixture, which typically has a pH of 6.0 to 6.8 and an organic matter content of about 30 percent, in plastic pots with a surface area of 103.2 square centimeters (cm^2). When required to ensure good germination and healthy plants, a fungicide treatment and/or other chemical or physical treatment was applied. The plants were grown for 7-36 days (d) in a greenhouse with an approximate 14-hour (h) photoperiod which was maintained at about 23° C. during the day and 22° C. during the night. Nutrients and water were added on a regular basis and supplemental lighting was provided with overhead metal halide 1000-Watt lamps as necessary. The plants were employed for testing when they reached the second or third true leaf stage.
(§2) Weighed amounts of technical material were dissolved in a volume of 97:3 volume per volume (v/v) acetone/dimethyl sulfoxide (DMSO) to stock solutions. […] The concentrated stock solutions were diluted with an aqueous mixture of 1.5% v/v of Agri-dex crop oil concentrate to provide the appropriate application rates. Compound requirements are based upon a 12 milliliter (mL) application volume at a rate of 187 liters per hectare (L/ha). Stocks solutions of the safeners were prepared following the same procedure. Spray solutions of the safeners and experimental compound mixtures were prepared by adding the stock solutions to the appropriate amount of dilution solution to form a 12 mL spray solution in two-way combinations. Formulated compounds were applied to the plant material with an overhead Mandel track sprayer equipped with 8002E nozzles calibrated to deliver 187 L/ha over an application area of 0.503 square meters (m^2) at a spray height of 18 inches (43 centimeters (cm)) above average plant canopy. Control plants were sprayed in the same manner with the solvent blank. All herbicide application (component a) rates are in g ae/ha and all safener (component b) rates are in g ai/ha.
(§3) The treated plants and control plants were placed in a greenhouse as described above and watered by sub-irrigation to prevent wash-off of the test compounds. After 20-22 d, the condition of the test plants as compared with that of the control plants was determined visually and scored on a scale of 0 to 100 percent where 0 corresponds to no injury and 100 corresponds to complete kill. The condition of the test plants was compared with that of the control plants as determined visually and scored on a scale of 0 to 100 percent, where 0 corresponds to no injury and 100 corresponds to complete kill. Colby's equation was used to determine the herbicidal effects expected from the mixtures.
(§4) The safener cloquintocet-mexyl was combined with compound 1, compound 2, compound 4, compound 5, and compound 6, and applied to corn/maize (ZEAMX) and spring wheat (TRZAS) and the phytotoxicity of the herbicidal compositions was measured. In addition, the efficacy of the herbicidal composition on velvetleaf (ABUTH, Abutilon theophrasti), pigweed (AMARE, Amaranthus retroflexus), winter rape (BRSNW, Brassica napus), lambsquarters (CHEAL, Chenopodium album), thistle (CIRAR, Cirsium arvense), nutsedge (CYPES, Cyperus esculentus), poinsettia (EPHHL, Euphorbia heterophylla), wild buckwheat (POLCO, Polygonum convolvulus), giant foxtail (SETFA, Setaria faberi), and chickweed (STEME, Stellaria media) was evaluated.
(§5) The safener cloquintocet-mexyl was combined with compound 1, compound 2, compound 3, compound 7, compound 8, compound 9, compound 10, compound 11, compound 12, compound 13, compound 14, compound 15, compound 16, compound 17, compound 18, compound 19, and compound 20, and applied to spring wheat (TRZAS), winter wheat (TRZAW), and spring barley (HORVS) and the phytotoxicity of the herbicidal compositions was measured. […]

[2] = tested on: spring barley (HORVS); assay: Postemergence greenhouse trial, % visual injury on spring barley; assay type: in vivo, Hordeum vulgare; details: HORVS, CQC-m 0 g/ha
Description: as §1, §2, §3, §5

[3] = tested on: pigweed (AMARE); assay: Postemergence greenhouse trial, % visual injury on pigweed; assay type: in vivo, Amaranthus retroflexus; details: AMARE; for % visual injury, Ob: CQC-m 0 g/ha
Description: as §1, §2, §3
as §4, with “evaluated. […]” for “evaluated.”
The safener cloquintocet-acid and a number of agriculturally acceptable esters and salts (-mexyl, -dimethylammonium salt and -triethylammonium salt) were combined in varying ratios with compound 1 and applied to spring wheat (TRZAS), winter wheat (TRZAW), and spring barley (HORVS), and the phytotoxicity of the herbicidal compositions was measured. […]

[4] = tested on: cleavers (GALAP); assay: Postemergence greenhouse trial, % visual injury on cleavers; assay type: in vivo, Galium aparine; details: CQC-m 0 g/ha
Description: as §1, §2, §3, §5

[5] = tested on: Russian thistle (SASKR); assay: Postemergence greenhouse trial, % visual injury on Russian thistle; assay type: in vivo, Salsola kali; details: SASKR, CQC-m 0 g/ha
[6] = tested on: winter rape (BRSNW); assay: Postemergence greenhouse trial, % visual injury on winter rape; assay type: in vivo, Brassica napus; details: Brassica napus, post-emergence, BRSNW, applied alone, read-out: % visual injury, Ob
Description: as §1, §2, §3
as §4, with “evaluated. […]” for “evaluated.”

[7] = tested on: kochia (KCHSC); assay: Postemergence greenhouse trial, % visual injury on kochia; assay type: in vivo, Kochia scoparia; details: Bassia scoparia, post-emergence, KCHSC, applied alone, read-out: % visual injury, Ob
Description: as §1, §2
as §3, with “mixtures. […]” for “mixtures.”

[8] = tested on: common poppy (PAPRH); assay: Postemergence greenhouse trial, % visual injury on common poppy; assay type: in vivo, Papaver rhoeas; details: Papaver rhoeas, post-emergence, PAPRH, applied alone, read-out: % visual injury, Ob
Description: as §1, §2
as §3, with “mixtures. […]” for “mixtures.”

[9] = tested on: wild mustard (SINAR); assay: Postemergence greenhouse trial, % visual injury on wild mustard; assay type: in vivo, Sinapis arvensis; details: Brassica, post-emergence, SINAR, applied alone, read-out: % visual injury, Ob
Description: as §1, §2
as §3, with “mixtures. […]” for “mixtures.”

[10] = tested on: wild pansy (VIOTR); assay: Postemergence greenhouse trial, % visual injury on wild pansy; assay type: in vivo, Viola tricolor; details: VIOTR, applied alone
Description: as §1, §2
as §3, with “mixtures. […]” for “mixtures.”

C=Cc1c(C(=O)OC)nc(-c2ccc3cc[nH]c3c2F)c(F)c1N [compound 14]
% visual injury, Ob ([1]; compound 4.380 g/ha): 0%
% visual injury, Ob ([1]; compound 8.75 g/ha): 0%
% visual injury, Ob ([1]; compound 17.5 g/ha): 0%
% visual injury, Ob ([1]; compound 35 g/ha): 10%
% visual injury, Ob ([1]; compound 70 g/ha): 30%
% visual injury, Ob ([2]; compound 4.380 g/ha): 0%
% visual injury, Ob ([2]; compound 8.75 g/ha): 0%
% visual injury, Ob ([2]; compound 17.5 g/ha): 10%
% visual injury, Ob ([2]; compound 35 g/ha): 20%
% visual injury, Ob ([2]; compound 70 g/ha): 40%
% visual injury, Ob ([3]; compound 4.380 g/ha): 10%
% visual injury, Ob ([3]; compound 8.75 g/ha): 10%
% visual injury, Ob ([3]; compound 17.5 g/ha): 20%
% visual injury, Ob ([4]; compound 4.380 g/ha): 10%
% visual injury, Ob ([4]; compound 8.75 g/ha): 10%
% visual injury, Ob ([4]; compound 17.5 g/ha): 20%
% visual injury, Ob ([4]; compound 35 g/ha): 30%
% visual injury, Ob ([4]; compound 70 g/ha): 60%
% visual injury, Ob ([5]; compound 4.380 g/ha): 0%
% visual injury, Ob ([5]; compound 8.75 g/ha): 10%
% visual injury, Ob ([5]; compound 17.5 g/ha): 50%
% visual injury, Ob ([5]; compound 35 g/ha): 60%
% visual injury, Ob ([5]; compound 70 g/ha): 70%

Nc1c(F)c(-c2ccc3cc[nH]c3c2)nc(C(=O)O)c1Cl [compound 16]
pest or weed control at 4.375 g/ha ([3]; Amaranthus retroflexus, post-emergence, 4.375 g/ha, applied alone, read-out: % visual injury, Ob): 70%
pest or weed control at 8.75 g/ha ([3]; Amaranthus retroflexus, post-emergence, 8.75 g/ha, applied alone, read-out: % visual injury, Ob): 80%
pest or weed control at 17.5 g/ha ([3]; Amaranthus retroflexus, post-emergence, 17.5 g/ha, applied alone, read-out: % visual injury, Ob): 85%
pest or weed control at 35 g/ha ([3]; Amaranthus retroflexus, post-emergence, 35 g/ha, applied alone, read-out: % visual injury, Ob): 100%
pest or weed control at 70 g/ha ([3]; Amaranthus retroflexus, post-emergence, 70 g/ha, applied alone, read-out: % visual injury, Ob): 100%
plant injury at 4.375 g/ha ([6]; 4.375 g/ha): 30%
plant injury at 8.75 g/ha ([6]; 8.75 g/ha): 40%
plant injury at 17.5 g/ha ([6]; 17.5 g/ha): 65%
plant injury at 35 g/ha ([6]; 35 g/ha): 70%
plant injury at 70 g/ha ([6]; 70 g/ha): 90%
pest or weed control at 4.375 g/ha ([7]; 4.375 g/ha): 60%
pest or weed control at 8.75 g/ha ([7]; 8.75 g/ha): 70%
pest or weed control at 17.5 g/ha ([7]; 17.5 g/ha): 85%
pest or weed control at 35 g/ha ([7]; 35 g/ha): 90%
pest or weed control at 70 g/ha ([7]; 70 g/ha): 90%
pest or weed control at 4.375 g/ha ([8]; 4.375 g/ha): 70%
pest or weed control at 8.75 g/ha ([8]; 8.75 g/ha): 70%
pest or weed control at 17.5 g/ha ([8]; 17.5 g/ha): 100%
pest or weed control at 35 g/ha ([8]; 35 g/ha): 100%
pest or weed control at 70 g/ha ([8]; 70 g/ha): 100%
pest or weed control at 4.375 g/ha ([9]; 4.375 g/ha): 90%
pest or weed control at 8.75 g/ha ([9]; 8.75 g/ha): 93%
pest or weed control at 17.5 g/ha ([9]; 17.5 g/ha): 95%
pest or weed control at 35 g/ha ([9]; 35 g/ha): 100%
pest or weed control at 70 g/ha ([9]; 70 g/ha): 100%
% visual injury, Ob ([10]; 4.375 g/ha): 10%
% visual injury, Ob ([10]; 8.75 g/ha): 10%
% visual injury, Ob ([10]; 17.5 g/ha): 20%
% visual injury, Ob ([10]; 35 g/ha): 30%
% visual injury, Ob ([10]; 70 g/ha): 40%
